Assay [1] has as its target T1, P300 (Homo sapiens, UniProt Q09472).
T1 construct: or p300 (aa 1284-1672); purchased Reaction Biology Corp; host or cells: E. coli
As to the kind of experiment: Histone acetyltransferase assay p300 (Reaction Biology). Format: biochemical. The method, then: Software Tool and reprinted with permission from KINOME scan®, a division of DiscoveRx […]
(§1) The following […] assays (HDAC, SIRT1, PRMT1, PARP1, p300, pCAF) were performed by Reaction Biology Corp. FKK6 was screened at a single concentration of 10 μM in duplicate in two separate experiments. The appropriate controls for the individual assays are published. The overall […]
(§2) enzyme activity in the assay is reported as a % activity in DMSO control wells. Control IC50 […]
(§3) Briefly, for the Sirtuin (SIRT1) assay, human SIRT1 (GenBank
Accession No. NM012238) full -length N-terminal His-tag protein (MW 83.2 kDa) was purified after expression in E. coli. […]
8), 50 mM NaCl, 0.1 mM EDTA, 1 mM DTT, 1 mM PMSF, and 1% DMSO. […] The radioactivity in mixture is detected on washed filter paper using a scintillation counter. […]
The 2X HDAC substrate is a fluorogenic acetylated peptide from p53 (residues 379 - 38 2 RHKK(Ac)AMC) which is mixed in with the enzyme-compound complex and incubated for 1-2 h at 30 °C. In the development step, a proprietary developer with trichostatin A (or TMP269) is added to stop the reaction and to generate fluorescent color which is read using an EnVision Multilabel Plate Reader (Perkin Elmer) (Ex 360 nm/ Em 460 nm). […]

Assay [2] has as its target T2, PARP 1 (Homo sapiens, UniProt P09874).
T2 construct: purchased Reaction Biology Corp. (RBC) PAR-21-346
As to the kind of experiment: PARP assay (Reaction Biology). The conditions noted are these: replicates. Format: biochemical. As for the experimental part:
as §1, §2, §3
Accession No. NM012238) full -length N-terminal His-tag protein (MW 83.2 kDa) was purified after expression in E. coli. The reaction buffer was freshly prepared and constituted 50 mM Tris-HC l ( p H 8), 137 mM NaCl, 2.7 mM KCl, 1 mM MgCl2, and just before use, 1 mg/mL BSA and 1% DMSO was added. The substrate was a fluorogenic acetylated peptide of p53 residues 379-382 (RHKK (Ac)- AM C) . In th e multi-well format, the 2X enzyme was mixed with the reaction buffer followed by compound (in 100% DMSO) titration via Acoustic technology (Echo550; LabCyte Inc, Sunnyvale, CA) in the nanoliter range. The mixture was spun down and 2X substrate (including NAD+) was added to initiate the reaction at 30° C at 2h under seal. […] Fluorescence kinetic measurements were conducted for 1.5 h in 15 min intervals using Envision (Ex 360nm/Em 460nm). […] The compound mixture was placed on filter paper and washed with 0.75% phosphoric acid and radioactivity counted. […]

Molecules are shown by their SMILES. Values joined by “and” are separate entries in the source; they are usually repeats but may differ in a detail not shown here. Equal values may be shown once.

T2 sequence (P09874 whole entry, species assumed): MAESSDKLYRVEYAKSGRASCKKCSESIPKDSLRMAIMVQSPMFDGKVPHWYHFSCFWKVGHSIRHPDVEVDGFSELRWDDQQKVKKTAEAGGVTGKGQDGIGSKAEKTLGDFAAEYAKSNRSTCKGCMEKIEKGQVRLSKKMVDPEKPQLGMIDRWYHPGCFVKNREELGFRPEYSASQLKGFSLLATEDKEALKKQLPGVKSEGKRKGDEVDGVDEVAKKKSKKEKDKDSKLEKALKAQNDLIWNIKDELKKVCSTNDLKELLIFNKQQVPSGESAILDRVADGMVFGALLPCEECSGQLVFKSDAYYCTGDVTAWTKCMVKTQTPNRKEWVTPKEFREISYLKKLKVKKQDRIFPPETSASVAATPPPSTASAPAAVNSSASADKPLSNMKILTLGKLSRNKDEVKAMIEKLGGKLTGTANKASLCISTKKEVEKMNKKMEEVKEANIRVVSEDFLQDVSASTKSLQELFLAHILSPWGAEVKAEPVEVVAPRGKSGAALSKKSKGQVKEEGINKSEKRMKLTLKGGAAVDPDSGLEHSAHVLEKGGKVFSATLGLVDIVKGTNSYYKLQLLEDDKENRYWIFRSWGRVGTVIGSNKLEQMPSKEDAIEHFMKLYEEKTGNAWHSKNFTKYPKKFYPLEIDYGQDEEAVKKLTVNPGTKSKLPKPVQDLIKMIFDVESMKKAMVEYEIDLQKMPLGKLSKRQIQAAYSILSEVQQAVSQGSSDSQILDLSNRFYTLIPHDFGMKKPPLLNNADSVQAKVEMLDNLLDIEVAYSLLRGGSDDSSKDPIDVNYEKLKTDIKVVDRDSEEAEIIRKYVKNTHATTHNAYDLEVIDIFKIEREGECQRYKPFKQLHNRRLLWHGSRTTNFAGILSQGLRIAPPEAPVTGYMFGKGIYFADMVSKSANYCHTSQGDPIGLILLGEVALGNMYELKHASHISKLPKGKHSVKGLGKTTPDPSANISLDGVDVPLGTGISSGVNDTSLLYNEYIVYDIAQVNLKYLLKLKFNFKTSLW
T1 sequence (Q09472 1284-1672): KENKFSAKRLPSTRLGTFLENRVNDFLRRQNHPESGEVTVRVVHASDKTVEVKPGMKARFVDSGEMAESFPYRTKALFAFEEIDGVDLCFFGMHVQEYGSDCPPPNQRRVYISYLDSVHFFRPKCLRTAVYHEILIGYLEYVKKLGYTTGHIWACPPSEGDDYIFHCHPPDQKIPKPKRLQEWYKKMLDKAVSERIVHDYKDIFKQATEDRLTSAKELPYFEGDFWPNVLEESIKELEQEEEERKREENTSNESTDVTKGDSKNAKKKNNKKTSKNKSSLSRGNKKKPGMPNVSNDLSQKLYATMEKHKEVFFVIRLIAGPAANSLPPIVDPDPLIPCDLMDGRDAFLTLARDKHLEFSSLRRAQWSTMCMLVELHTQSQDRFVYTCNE

Turning to `C#CCC(O)(c1ccncc1)c1cc2ccccc2n1S(=O)(=O)c1ccccc1` (stereo not shown) [FKK6], the “% Enzyme Activity to DMSO controls” value is 97.73% and 98.72% and 95.38% in assay [1] (10 μM, substrate Histone H3, replicates data1/2 Exp 1/2); 98.25% and 91.38% and 91.03% in assay [2] (10 μM). In addition, the remaining activity at 10 µM in assay [1] (substrate Histone H3, replicates data1/2 Exp 1/2, read-out: % Enzyme Activity to DMSO controls) is 100%; in assay [2] (read-out: % Enzyme Activity to DMSO controls), 99.2%.

The values are drawn from article PMC7136958, “Targeting the pregnane X receptor using microbial metabolite mimicry” (EMBO Molecular Medicine, 2020).
